Results: the supplement of paper PMC10307832

Legend:
Test in all cases: relative viability (nuclei count vs DMSO), 5 days (fraction); higher = more cells survive
[1] = compound: Nc1ccccc1NC(=O)c1ccc(CNC(=O)OCc2cccnc2)cc1 [Entinostat] + NC(=O)Nc1cc(-c2cccc(F)c2)sc1C(=O)N[C@H]1CCCNC1 [AZD7762] (partner 0.2 µM)
In short: (§1)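 Cells from lung cancer lines were seeded into 1536-well plates and, one day later, dosed by pin tool. Treatments were either a single drug or a fixed dose of an anchor drug with five library-drug doses (not always all listed) in √10 steps. After 5 days, nuclei were stained in a one-step fixation (final 0.05% Triton X-100, 1% formaldehyde, 1 ug/ml Hoechst) and counted on 4× images, and relative viability is the treated-to-vehicle nuclei ratio, as the median of duplicate plates.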

[2] = compound: Nc1ccccc1NC(=O)c1ccc(CNC(=O)OCc2cccnc2)cc1 [Entinostat] + CC(=O)c1c(C)c2cnc(Nc3ccc(N4CCNCC4)cn3)nc2n(C2CCCC2)c1=O [Palbociclib] (partner 0.5 µM)
In short: as §1

[3] = compound: C1COCCN1C2=NC(=NC3=C2OC4=C3C=CC=N4)C5=CC(=CC=C5)NC(=O)C6=CN=C(C=C6)N + CS(=O)(=O)N1CCN(Cc2cc3nc(-c4cccc5[nH]ncc45)nc(N4CCOCC4)c3s2)CC1 [Pictilisib] (partner 1 µM)
In short: as §1

[4] = compound: Nc1ccccc1NC(=O)c1ccc(CNC(=O)OCc2cccnc2)cc1 [Entinostat] + CC(=O)Nc1cccc(-n2c(=O)n(C3CC3)c(=O)c3c(Nc4ccc(I)cc4F)n(C)c(=O)c(C)c32)c1 [Trametinib] (partner 0.02 µM)
In short: as §1

| Cell Line | relative viability ([1]; first compound 0.02 µM) | relative viability ([1]; first compound 0.06325 µM) | relative viability ([1]; first compound 0.2 µM) | relative viability ([1]; first compound 0.6325 µM) | relative viability ([1]; first compound 2 µM) | relative viability ([2]; first compound 0.02 µM) | relative viability ([2]; first compound 0.06325 µM) | relative viability ([2]; first compound 0.2 µM) | relative viability ([2]; first compound 0.6325 µM) | relative viability ([2]; first compound 2 µM) | relative viability ([3]; first compound 0.06325 µM) | relative viability ([3]; first compound 0.2 µM) | relative viability ([3]; first compound 0.6325 µM) | relative viability ([3]; first compound 2 µM) | relative viability ([4]; first compound 0.02 µM) | relative viability ([4]; first compound 0.06325 µM) | relative viability ([4]; first compound 0.2 µM) | relative viability ([4]; first compound 0.6325 µM) | relative viability ([4]; first compound 2 µM) | relative viability ([3]; first compound 0.02 µM) |
| --- | --- | --- | --- | --- | --- | --- | --- | --- | --- | --- | --- | --- | --- | --- | --- | --- | --- | --- | --- | --- |
| LCLC-97TM1 | 0.246 | 0.283 | 0.283 | 0.281 | 0.243 | 0.21 | 0.213 | 0.236 | 0.277 | 0.18 | 0.173 | 0.217 | 0.235 | 0.184 | 0.233 | 0.207 | 0.214 | 0.152 | 0.139 |  |
| LCLC-103H | 0.818 | 0.866 | 0.719 | 0.474 | 0.432 | 0.526 | 0.438 | 0.406 | 0.429 | 0.427 | 0.647 | 0.555 | 0.678 | 0.551 | 0.718 | 0.605 | 0.713 | 0.588 | 0.561 | 0.533 |
| LK-2 | 0.481 | 0.623 | 0.5 | 0.345 | 0.21 | 0.77 | 0.673 | 0.651 | 0.496 | 0.211 | 0.444 | 0.621 | 0.477 | 0.612 | 0.778 | 0.686 | 0.652 | 0.447 | 0.349 | 0.64 |
| LOU-NH91 | 0.729 | 0.807 | 0.735 | 0.664 | 0.653 | 0.466 | 0.581 | 0.532 | 0.531 | 0.508 | 0.531 | 0.51 | 0.521 | 0.512 | 0.777 | 0.771 | 0.804 | 0.739 | 0.674 | 0.48 |
| LU99A | 0.353 | 0.475 | 0.378 | 0.224 | 0.254 | 0.419 | 0.416 | 0.376 | 0.388 | 0.302 | 0.344 | 0.308 | 0.321 | 0.267 | 0.599 | 0.615 | 0.504 | 0.471 | 0.378 | 0.361 |
| LXF-289 | 1.05 | 1.14 | 1.07 | 0.952 | 0.473 | 0.577 | 0.606 | 0.575 | 0.509 | 0.514 | 0.861 | 0.703 | 0.758 | 0.602 | 0.642 | 0.653 | 0.652 | 0.408 | 0.453 | 0.782 |
| NCI-H23 | 0.377 | 0.294 | 0.251 | 0.137 | 0.121 | 0.568 | 0.661 | 0.507 | 0.509 | 0.283 | 0.504 | 0.409 | 0.432 | 0.32 | 0.411 | 0.475 | 0.483 | 0.394 | 0.215 | 0.473 |
| NCI-H322M | 0.591 | 0.64 | 0.958 | 0.731 | 0.621 | 0.499 | 0.533 | 0.495 | 0.546 | 0.516 | 0.542 | 0.474 | 0.585 | 0.484 | 0.546 | 0.534 | 0.542 | 0.525 | 0.502 | 0.508 |
| NCI-H358 | 0.55 | 0.69 | 0.6 | 0.408 | 0.192 | 0.134 | 0.14 | 0.17 | 0.127 | 0.125 | 0.302 | 0.288 | 0.328 | 0.296 | 0.175 | 0.164 | 0.135 | 0.117 | 0.127 | 0.287 |
| NCI-H441 | 1.05 | 0.883 | 0.715 | 0.281 | 0.196 | 0.218 | 0.231 | 0.238 | 0.171 | 0.129 | 0.585 | 0.427 | 0.447 | 0.345 | 0.498 | 0.687 | 0.568 | 0.227 | 0.147 | 0.564 |
| NCI-H460 | 0.65 | 0.651 | 0.559 | 0.233 | 0.0734 | 0.112 | 0.0634 | 0.0456 | 0.0231 | 0.0171 | 0.384 | 0.255 | 0.355 | 0.294 | 0.226 | 0.0831 | 0.0851 | 0.0455 | 0.0239 | 0.411 |
| NCI-H647 | 0.49 | 0.557 | 0.55 | 0.186 | 0.0556 | 0.318 | 0.343 | 0.337 | 0.0924 | 0.0625 | 0.483 | 0.418 | 0.353 | 0.339 | 0.48 | 0.398 | 0.525 | 0.322 | 0.133 | 0.465 |
| NCI-H650 | 1.12 | 0.95 | 1.08 | 0.823 | 0.325 | 0.412 | 0.349 | 0.361 | 0.257 | 0.167 | 0.947 | 0.861 | 0.77 | 0.741 | 1.06 | 1 | 0.917 | 0.708 | 0.487 | 0.948 |
| NCI-H727 | 0.598 | 0.667 | 0.624 | 0.646 | 0.776 | 0.596 | 0.702 | 0.628 | 0.657 | 0.649 | 0.335 | 0.342 | 0.412 | 0.285 | 0.368 | 0.365 | 0.347 | 0.331 | 0.273 | 0.298 |
| NCI-H838 | 0.993 | 0.973 | 0.814 | 0.917 | 0.712 | 0.254 | 0.224 | 0.28 | 0.236 | 0.171 | 0.446 | 0.45 | 0.362 | 0.311 | 0.531 | 0.548 | 0.626 | 0.395 | 0.167 | 0.481 |
| NCI-H1355 | 0.634 | 0.789 | 0.618 | 0.546 | 0.369 | 0.416 | 0.417 | 0.332 | 0.328 | 0.25 | 0.424 | 0.413 | 0.423 | 0.459 | 0.443 | 0.402 | 0.337 | 0.344 | 0.243 | 0.336 |
